Tested on: HLA-A*02
Test: MHC binding assay, UV-ligand exchange with β2m ELISA, HLA-A*02 (Table 20)
Parameters: species or system human
Conditions: binding to HLA-A*02 ranged by peptide exchange yield (UV-ligand exchange, β2m ELISA)
Source text: Candidate peptides for T cell based therapies according to the present invention were further tested for their MHC binding capacity (affinity). The individual peptide-MHC complexes were produced by UV-ligand exchange, where a UV-sensitive peptide is cleaved upon UV-irradiation, and exchanged with the peptide of interest as analyzed. Only peptide candidates that can effectively bind and stabilize the peptide-receptive MHC molecules prevent dissociation of the MHC complexes. To determine the yield of the exchange reaction, an ELISA was performed based on the detection of the light chain ((β2m) of stabilized MHC complexes. The assay was performed as generally described in Rodenko et al. (Rodenko et al., 2006).
96 well MAXISorp plates (NUNC) were coated over night with 2 ug/ml streptavidin in PBS at room temperature, washed 4× and blocked for 1 h at 37° C. in 2% BSA containing blocking buffer. Refolded HLA-A*02:01/MLA-001 monomers served as standards, covering the range of 15-500 ng/ml. Peptide-MHC monomers of the UV-exchange reaction were diluted 100 fold in blocking buffer. Samples were incubated for 1 h at 37° C., washed four times, incubated with 2 ug/ml HRP conjugated anti-β2m for 1 h at 37° C., washed again and detected with TMB solution that is stopped with […]. Absorption was measured at 450 nm. Candidate peptides that show a high exchange yield (preferably higher than 50%, most preferred higher than 75%) are generally preferred for a generation and production of antibodies or fragments thereof, and/or T cell receptors or fragments thereof, as they show sufficient avidity to the MHC molecules and prevent dissociation of the MHC complexes.

Row | Substance | Peptide exchange
1 | 72 (FLTAINYLL; listed as Homo sapiens) [compound 72] | +++ (50%-75% = +++)
2 | 112 (SLGKFTFDV; listed as Homo sapiens) [compound 112] | ++++ (≧75% = ++++)
3 | 154 (RLLGTEFQV; listed as Homo sapiens) [compound 154] | +++ (50%-75% = +++)
4 | 132 (ILGEVLAQL; listed as Homo sapiens) [compound 132] | +++ (50%-75% = +++)
5 | 119 (FIIQGLRSVGA; listed as Homo sapiens) [compound 119] | +++ (50%-75% = +++)
6 | 146 (ALHFSEDEI; listed as Homo sapiens) [compound 146] | ++ (20%-49% = ++)
7 | 63 (SQIPAQPSV; listed as Homo sapiens) [compound 63] | ++ (20%-49% = ++)
8 | 42 (LLDSVSRL; listed as Homo sapiens) [compound 42] | + (<20% = +)
9 | 252 (RLMEICESL; listed as Homo sapiens) [compound 252] | +++ (50%-75% = +++)
10 | 100 (ALLGMIIVGV; listed as Homo sapiens) [compound 100] | + (<20% = +)
11 | 108 (ILLKNLVTI; listed as Homo sapiens) [compound 108] | ++ (20%-49% = ++)
12 | 67 (TLLQRLTEV; listed as Homo sapiens) [compound 67] | +++ (50%-75% = +++)
13 | 68 (SLSNRLYYL; listed as Homo sapiens) [compound 68] | +++ (50%-75% = +++)
14 | 127 (KLDGNELDL; listed as Homo sapiens) [compound 127] | +++ (50%-75% = +++)
15 | 245 (SLLDLPLSL; listed as Homo sapiens) [compound 245] | ++++ (≧75% = ++++)
16 | 46 (SQFPLPLAV; listed as Homo sapiens) [compound 46] | ++ (20%-49% = ++)
17 | 113 (FLERGLESA; listed as Homo sapiens) [compound 113] | ++ (20%-49% = ++)
18 | 118 (QLWQFLVTL; listed as Homo sapiens) [compound 118] | +++ (50%-75% = +++)
19 | 51 (LLFSRLCGA; listed as Homo sapiens) [compound 51] | ++++ (≧75% = ++++)
20 | 16 (YTLDIPVLFGV; listed as Homo sapiens) [compound 16] | ++++ (≧75% = ++++)
21 | 243 (FMADDIFSV; listed as Homo sapiens) [compound 243] | +++ (50%-75% = +++)
22 | 102 (VLLDIQEVFQI; listed as Homo sapiens) [compound 102] | +++ (50%-75% = +++)
23 | 89 (QLAPVFQRV; listed as Homo sapiens) [compound 89] | ++ (20%-49% = ++)

Row | Substance | Peptide exchange
24 | 258 (LLSERFINV; listed as Homo sapiens) [compound 258] | ++++ (≧75% = ++++)
25 | 250 (SLAPATPEV; listed as Homo sapiens) [compound 250] | +++ (50%-75% = +++)
26 | 121 (FTIFRTISV; listed as Homo sapiens) [compound 121] | +++ (50%-75% = +++)
27 | 55 (SLATKIVEA; listed as Homo sapiens) [compound 55] | +++ (50%-75% = +++)
28 | 48 (QVIEDSTGV; listed as Homo sapiens) [compound 48] | ++ (20%-49% = ++)
29 | 117 (KMPDVELFV; listed as Homo sapiens) [compound 117] | +++ (50%-75% = +++)
30 | 10 (GIAGSLKTV; listed as Homo sapiens) [compound 10] | +++ (50%-75% = +++)
31 | 155 (LLNPVVEFV; listed as Homo sapiens) [compound 155] | +++ (50%-75% = +++)
32 | 122 (GVVDPVHGV; listed as Homo sapiens) [compound 122] | ++ (20%-49% = ++)
33 | 130 (SLLGGTFVGI; listed as Homo sapiens) [compound 130] | +++ (50%-75% = +++)
34 | 103 (YLVSEIFKA; listed as Homo sapiens) [compound 103] | +++ (50%-75% = +++)
35 | 135 (HLSTIIHEA; listed as Homo sapiens) [compound 135] | +++ (50%-75% = +++)
36 | 73 (YTLREVDTV; listed as Homo sapiens) [compound 73] | ++ (20%-49% = ++)
37 | 15 (YLDLSHNQL; listed as Homo sapiens) [compound 15] | +++ (50%-75% = +++)
38 | 76 (AVGPVHNSV; listed as Homo sapiens) [compound 76] | ++ (20%-49% = ++)
39 | 148 (MLAGIAITV; listed as Homo sapiens) [compound 148] | +++ (50%-75% = +++)
40 | 57 (TVFTDHMLTV; listed as Homo sapiens) [compound 57] | ++ (20%-49% = ++)
41 | 69 (FLAVGLVDV; listed as Homo sapiens) [compound 69] | +++ (50%-75% = +++)
42 | 88 (AQADHLPQL; listed as Homo sapiens) [compound 88] | ++ (20%-49% = ++)
43 | 59 (KLLDPQEFTL; listed as Homo sapiens) [compound 59] | +++ (50%-75% = +++)
44 | 47 (ALLERGELFV; listed as Homo sapiens) [compound 47] | +++ (50%-75% = +++)
45 | 261 (QLQDRVYAL; listed as Homo sapiens) [compound 261] | +++ (50%-75% = +++)
46 | 114 (QLIQTLHAV; listed as Homo sapiens) [compound 114] | +++ (50%-75% = +++)

Second part, the substance after the results:

Row | Peptide exchange | Substance
47 | ++ (20%-49% = ++) | 41 (ALFENTPKA; listed as Homo sapiens) [compound 41]
48 | ++ (20%-49% = ++) | 78 (TVVTRLDEI; listed as Homo sapiens) [compound 78]
49 | ++ (20%-49% = ++) | 79 (VTFKEYVTV; listed as Homo sapiens) [compound 79]
50 | ++++ (≧75% = ++++) | 125 (SLADYEHFV; listed as Homo sapiens) [compound 125]
51 | ++ (20%-49% = ++) | 239 (KMNESTRSV; listed as Homo sapiens) [compound 239]
52 | +++ (50%-75% = +++) | 265 (NTCPYVHNI; listed as Homo sapiens) [compound 265]
53 | +++ (50%-75% = +++) | 266 (YAIGLVMRL; listed as Homo sapiens) [compound 266]
54 | +++ (50%-75% = +++) | 240 (YMGEEKLIASV; listed as Homo sapiens) [compound 240]
55 | ++ (20%-49% = ++) | 123 (VLDPALPALV; listed as Homo sapiens) [compound 123]
56 | +++ (50%-75% = +++) | 75 (AVIKFLELL; listed as Homo sapiens) [compound 75]
57 | +++ (50%-75% = +++) | 45 (SLTEVSLPL; listed as Homo sapiens) [compound 45]
58 | +++ (50%-75% = +++) | 106 (FINDSIVYL; listed as Homo sapiens) [compound 106]
59 | +++ (50%-75% = +++) | 246 (TVSDVLNSV; listed as Homo sapiens) [compound 246]
60 | ++++ (≧75% = ++++) | 129 (RLQDILWFL; listed as Homo sapiens) [compound 129]
61 | +++ (50%-75% = +++) | 152 (MMVGDLLEV; listed as Homo sapiens) [compound 152]
62 | ++++ (≧75% = ++++) | 95 (GLLGSLFFL; listed as Homo sapiens) [compound 95]
63 | +++ (50%-75% = +++) | 19 (SISDNVWEV; listed as Homo sapiens) [compound 19]
64 | ++ (20%-49% = ++) | 80 (KLYEADFVL; listed as Homo sapiens) [compound 80]
65 | ++ (20%-49% = ++) | 254 (KLQGKLPEL; listed as Homo sapiens) [compound 254]
66 | ++ (20%-49% = ++) | 62 (ALNPELVQA; listed as Homo sapiens) [compound 62]
67 | +++ (50%-75% = +++) | 262 (FMVDKAIYL; listed as Homo sapiens) [compound 262]
68 | +++ (50%-75% = +++) | 253 (ALAELIDNSL; listed as Homo sapiens) [compound 253]
69 | + (<20% = +) | 120 (VTPVTVSAV; listed as Homo sapiens) [compound 120]
70 | ++ (20%-49% = ++) | 263 (VLLSEQGDVKL; listed as Homo sapiens) [compound 263]
71 | +++ (50%-75% = +++) | 50 (ILFHGVFYA; listed as Homo sapiens) [compound 50]
72 | ++ (20%-49% = ++) | 256 (SLGEEQFSV; listed as Homo sapiens) [compound 256]
73 | +++ (50%-75% = +++) | 145 (YLWATIQRI; listed as Homo sapiens) [compound 145]

Reference: US20170189504A1, “NOVEL PEPTIDES AND COMBINATION OF PEPTIDES FOR USE IN IMMUNOTHERAPY AGAINST VARIOUS CANCERS” (immatics biotechnologies GmbH, priority 2015, published 2017)
